Read-outs that look alike come from different tables or passages of the source.
Columns and labels:
in vitro = settings: PAMPA; for Papp: pH 7.4
Source text: Based on prior work[40]^,[41], a parallel artificial membrane permeation assay (PAMPA) for the blood-brain barrier (BBB) was used to determine the ability of the test chemical to penetrate into the brain. Six commercial medicines were purchased from Aladdin Reagents to validate the methodology. Energy Chemical provided the DMSO and dodecane. Avanti Polar Lipids provided the porcine brain lipid (PBL). Millipore provided the donor 96-well filter microplate with a PVDF membrane (pore size […]) and the acceptor indented 96-well microplate. Corning Inc. provided the 96-well UV plate (COSTAR). DMSO was used to dissolve commercial medications and test compounds at a concentration of 20 mg/mL. They were then diluted 200 times in a solution of PBS (pH 7.4 ± 0.1)/EtOH (70/30, v/v) to achieve a final concentration of 100 µg/mL. The donor microplate's fifilter membrane was coated with 4 µL of PBL in dodecane (20 mg/mL). The donor wells were then filled with 200 µL of diluted chemical solution and 300 µL of PBS/EtOH (70/30, v/v). To make the membrane contact with buffer solution, the donor fifilter plate was carefully positioned on top of the acceptor plate to form a “sandwich” assembly. At 25 °C, the sandwich was left undisturbed. The donor plate was carefully removed after 18 h of incubation, and the concentrations of test chemicals in the donor and acceptor wells were quantified using a UV plate spectroscopic reader (PerkinElmer VICTOR Nivo, Finland). Each sample was analysed at three wavelengths, in at least three independent experiments, in four wells.
Pe, permeability, refers to the ability of compounds to permeate the membranes through passive diffusion in the blood-brain barrier penetration assays.

BuChE from horse serum = molecular target: T1, BuChE from horse serum (Equus caballus, UniProt P81908); test: biochemical; format: biochemical; settings: for inhibition at 20 µM: read-out: BuChE % inhibition at 20 µM
T1 construct: BuChE from horse serum (C4290-1KU; Sigma); purchased Sigma C4290-1KU; host or cells: horse serum
T1 sequence (P81908 whole entry): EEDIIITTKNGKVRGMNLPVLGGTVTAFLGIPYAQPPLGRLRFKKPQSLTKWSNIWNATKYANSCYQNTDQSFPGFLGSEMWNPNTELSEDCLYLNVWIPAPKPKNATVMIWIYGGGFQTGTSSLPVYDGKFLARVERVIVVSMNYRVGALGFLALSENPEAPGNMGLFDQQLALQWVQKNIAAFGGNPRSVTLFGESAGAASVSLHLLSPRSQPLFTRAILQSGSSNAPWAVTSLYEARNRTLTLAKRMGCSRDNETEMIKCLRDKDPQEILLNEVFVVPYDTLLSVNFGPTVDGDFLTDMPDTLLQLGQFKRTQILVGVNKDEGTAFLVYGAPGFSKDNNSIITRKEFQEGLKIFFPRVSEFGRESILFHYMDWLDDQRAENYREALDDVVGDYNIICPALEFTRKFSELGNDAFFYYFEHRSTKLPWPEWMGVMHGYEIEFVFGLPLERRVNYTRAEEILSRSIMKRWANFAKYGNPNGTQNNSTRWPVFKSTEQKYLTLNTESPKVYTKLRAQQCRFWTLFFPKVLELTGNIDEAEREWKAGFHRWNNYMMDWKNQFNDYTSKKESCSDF
Procedure: (§1) According to Ellman's method, assays were carried out on AChE from electric eel (C3389-500UN; Sigma) and BuChE from horse serum (C4290-1KU; Sigma). On a final volume of 500 μL, the experiment was carried out in 48-well plates. EeAChE or eqBuChE, 0.036 U/mL, and 0.1 M pH 8 phosphate buffer were added to each well. At 37 °C, they were pre-incubated for 20 min at various chemical concentrations. […] Along with the enzymatic breakdown of ACh or BuCh, the DTNB creates the yellow anion 5-thio-2-nitrobenzoic acid. In a Biotek Synergy HTX Multi-Mode reader, changes in absorbance were detected at 410 nm. Inhibition curves were used to calculate the IC50 values (log inhibitor concentration vs percent of inhibition). The same conditions were used in a control experiment without the inhibitor, and the blank comprised buffer, DMSO, DTNB, and substrate.
(§2) The IC50 values were calculated by SPSS 17.0.

AChE from electric eel = molecular target: T2, AChE from electric eel (Electrophorus electricus, UniProt O42275); test: EeAChE inhibition assay (Ellman's method); format: biochemical; settings: for inhibition at 20 µM: read-out: AChE % inhibition at 20 µM, 20 µM, na = no inhibitory activity at 20 µM; for IC50: mean ± SEM; for AChE % inhibition at 20 µM: na = no inhibitory activity at 20 µM
T2 construct: AChE from electric eel (C3389-500UN; Sigma); purchased Sigma C3389-500UN
T2 sequence (O42275 24-633): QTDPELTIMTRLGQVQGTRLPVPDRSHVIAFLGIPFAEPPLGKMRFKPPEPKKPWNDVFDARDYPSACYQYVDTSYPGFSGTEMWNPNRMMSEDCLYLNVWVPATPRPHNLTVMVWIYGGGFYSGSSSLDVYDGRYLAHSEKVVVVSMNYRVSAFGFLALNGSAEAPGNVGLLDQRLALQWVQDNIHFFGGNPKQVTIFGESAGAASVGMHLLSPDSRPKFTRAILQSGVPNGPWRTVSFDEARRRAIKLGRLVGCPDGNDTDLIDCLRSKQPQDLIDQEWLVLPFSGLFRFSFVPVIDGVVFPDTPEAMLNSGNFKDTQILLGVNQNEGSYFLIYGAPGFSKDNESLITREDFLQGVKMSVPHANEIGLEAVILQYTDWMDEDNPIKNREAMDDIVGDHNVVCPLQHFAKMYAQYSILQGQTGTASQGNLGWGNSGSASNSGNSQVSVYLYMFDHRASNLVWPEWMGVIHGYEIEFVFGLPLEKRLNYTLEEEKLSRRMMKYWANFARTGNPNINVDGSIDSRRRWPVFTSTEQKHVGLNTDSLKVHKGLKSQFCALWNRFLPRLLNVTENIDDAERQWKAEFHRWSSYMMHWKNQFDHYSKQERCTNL
Procedure: as §1, §2

male ICR mice = settings: Aβ1–42 10 µg icv, K3 10 mg/kg po, donepezil 15 mg/kg po, Day 3 to Day 14
Source text: The National Institutes of Health Guide for the Care and Use of Laboratory Animals was followed for all experiments. The Animal Care and Use Committee of Anhui Medical University adopted the Measures for the Care and Treatment of Laboratory Animals. In Anhui Medical University's animal centre, male ICR mice were employed (Hefei). […] Throughout all of the experiments, the room's ambient temperature and relative humidity (50%) remained constant. […] 8‒10 animals were used in each study group. The experimental time was from 08: 00 to 14: 00, and the mice were sacrificed by cervical dislocation shortly after the experiment ended. […] Aβ1–42 aggregation was induced by dissolving the Aβ1–42 peptide in DMSO as a stock solution of 5 mM and incubating it in saline at a final concentration of 2 mg/mL for 24 h at 37 °C.

[1] = BuChE from horse serum, 20 µM, na = no inhibitory activity at 20 µM

Row | Compound | IC50 (BuChE from horse serum) [µM] | inhibition at 20 µM (AChE from electric eel) [%] | other results
1 | Clc1cccc(Cl)c1N=C1NCCN1 [Clonidine] | – | – | BBB penetration (in vitro): CNS+; Papp (in vitro): 8.3 ×10⁻⁶ cm/s
2 | O=S(=O)(F)Oc1cc(-c2ccccc2)nn1-c1ccccc1 [Compound K1] | 2.28 ± 0.64 | 33.6 ± 1.6 | –
3 | O=S(=O)(F)Oc1cc(-c2ccccc2)nn1-c1ccc(F)cc1 [Compound K2] | 1.73 ± 0.62 | 27.5 ± 2.7 | –
4 | Cc1ccc(-n2nc(-c3ccccc3)cc2OS(=O)(=O)F)cc1 [Compound K4] | 2.35 ± 1.02 | 25.9 ± 0.9 | –
5 | Cc1ccc(-n2nc(-c3ccccc3)cc2OS(=O)(=O)F)cc1C [Compound K5] | 2.23 ± 0.31 | 24.4 ± 2.1 | –
6 | COc1ccc(-n2nc(-c3ccccc3)cc2OS(=O)(=O)F)cc1 [Compound K6] | – | 25.7 ± 1.5 | inhibition at 20 µM (BuChE from horse serum): 47.9 ± 1.9%
7 | O=S(=O)(F)Oc1cc(-c2ccccc2)nn1-c1ccccn1 [Compound K7] | 9.89 ± 0.87 | – | IC50 (AChE from electric eel): 19.39 ± 0.01 µM
8 | O=S(=O)(F)Oc1cc(-c2ccccc2)nn1C1CCCCC1 [Compound K8] | 5.84 ± 0.87 | 25.1 ± 1.2 | –
9 | CC(C)(C)n1nc(-c2ccccc2)cc1OS(=O)(=O)F [Compound K9] | – | – | BuChE % inhibition at 20 µM (BuChE from horse serum; [1]): 30.9 ± 1.5%; AChE % inhibition at 20 µM (AChE from electric eel): 10.1 ± 0.4%
10 | O=S(=O)(F)Oc1cc(-c2ccccc2)n[nH]1 [Compound K10] | 6.92 ± 1.41 | 32 ± 1.2 | –
11 | Cc1nn(-c2ccccc2)c(OS(=O)(=O)F)c1C [Compound K11] | – | – | BuChE % inhibition at 20 µM (BuChE from horse serum; [1]): 45.2 ± 1.8%; AChE % inhibition at 20 µM (AChE from electric eel): 7.2 ± 1.0%
12 | Cc1nn(-c2ccccn2)c(OS(=O)(=O)F)c1C [Compound K12] | – | – | BuChE % inhibition at 20 µM (BuChE from horse serum; [1]): 20.7 ± 1.7%; AChE % inhibition at 20 µM (AChE from electric eel): 42.8 ± 0.8%
13 | Cc1cc(OS(=O)(=O)F)n(-c2ccccc2)n1 [Compound K13] | 9.16 ± 0.53 | 37.5 ± 1.4 | –
14 | Cc1cc(OS(=O)(=O)F)n(-c2ccc(F)cc2)n1 [Compound K14] | 5.5 ± 0.09 | 48.2 ± 1 | –
15 | Cc1cc(OS(=O)(=O)F)n(-c2ccc(Cl)cc2)n1 [Compound K15] | 5.26 ± 0.39 | 45.2 ± 1.3 | –
16 | Cc1cc(OS(=O)(=O)F)n(-c2ccc(Br)cc2)n1 [Compound K16] | 7.64 ± 0.41 | 37.2 ± 0.7 | –
17 | Cc1cccc(-n2nc(C)cc2OS(=O)(=O)F)c1 [Compound K17] | 19.2 ± 0.69 | 33.4 ± 1.3 | –

Row | Compound | IC50 (BuChE from horse serum) [µM] | inhibition at 20 µM (AChE from electric eel) [%] | other results
18 | Cc1cc(OS(=O)(=O)F)n(-c2ccc(C)c(C)c2)n1 [Compound K18] | 3.31 ± 0.7 | 8.1 ± 0.5 | –
19 | Cc1cc(OS(=O)(=O)F)n(C(C)(C)C)n1 [Compound K19] | – | – | BuChE % inhibition at 20 µM (BuChE from horse serum; [1]): no activity
20 | CC(C)c1cc(OS(=O)(=O)F)n(-c2ccccc2)n1 [Compound K20] | 11.25 ± 0.11 | 41.6 ± 0.7 | –
21 | CC(C)c1cc(OS(=O)(=O)F)n(-c2ccc(F)cc2)n1 [Compound K21] | 6.9 ± 0.42 | – | IC50 (AChE from electric eel): 7.79 ± 0.07 µM
22 | Cc1ccc(-n2nc(C(C)C)cc2OS(=O)(=O)F)cc1 [Compound K22] | 18 ± 0.34 | – | IC50 (AChE from electric eel): 2.6 ± 0.27 µM
23 | Cc1ccc(-n2nc(C(C)C)cc2OS(=O)(=O)F)cc1C [Compound K23] | 3.98 ± 0.09 | 21.4 ± 1.1 | –
24 | CCCc1cc(OS(=O)(=O)F)n(-c2ccc(Cl)cc2)n1 [Compound K24] | 4.59 ± 0.06 | 41.8 ± 0.2 | –
25 | CCCc1cc(OS(=O)(=O)F)n(-c2ccc(OC)cc2)n1 [Compound K25] | 3.47 ± 0.04 | 10.3 ± 0.6 | –
26 | O=S(=O)(F)Oc1cc(C2CC2)nn1-c1ccccc1 [Compound K26] | 14.4 ± 1.08 | – | IC50 (AChE from electric eel): 4.82 ± 0.07 µM
27 | O=C1CC(c2ccccc2)=NN1c1ccccc1 [Compound M1] | – | 8.8 ± 2.6 | –
28 | O=C1CC(c2ccccc2)=NN1c1ccc(F)cc1 [Compound M2] | – | 37 ± 3.3 | inhibition at 20 µM (BuChE from horse serum; [1]): 27.7 ± 11.7%
29 | O=C1CC(c2ccccc2)=NN1c1ccc(Cl)cc1 [Compound M3] | – | 26.9 ± 1 | inhibition at 20 µM (BuChE from horse serum; [1]): 25.4 ± 5.4%
30 | Cc1ccc(N2N=C(c3ccccc3)CC2=O)cc1C [Compound M4] | – | 10.7 ± 1.9 | inhibition at 20 µM (BuChE from horse serum; [1]): 44.1 ± 13.8%
31 | COc1cc2c(cc1OC)C(=O)C(CC1CCN(Cc3ccccc3)CC1)C2 (stereo not shown) [Donepezil, reference compound] | – | – | effect on Aβ1–42-induced cognitive dysfunction (MWM) (male ICR mice): significantly improved
32 | CN1C(C(=O)Nc2ccccn2)=C(O)c2ccccc2S1(=O)=O [Piroxicam] | – | – | Papp (in vitro): 2.23 ×10⁻⁶ cm/s
33 | CC(=O)[C@H]1CC[C@H]2[C@@H]3CCC4=CC(=O)CC[C@]4(C)[C@H]3CC[C@]12C [Progesterone] | – | – | Papp (in vitro): 8.1 ×10⁻⁶ cm/s
